Values of other authors as cited in patent publication US20250082651A1, “GANAXOLONE FOR USE IN TREATING GENETIC EPILEPTIC DISORDERS” (Marinus Pharmaceuticals, Inc., priority 2017, published 2025).

Assays:
[1] = test system: patients with CDKL5-related epilepsy; settings: CDKL5 deficiency disorder patients; cited from earlier work
[2] = human plasma; cited from earlier work

| SMILES | Responder rate at 12 months [1] [%] | Half-life [2] |
| --- | --- | --- |
| CCCC(CCC)C(=O)O [valproic acid] | 9 | – |
| CC(=O)[C@H]1CC[C@H]2[C@@H]3CC[C@H]4C[C@H](O)CC[C@]4(C)[C@H]3CC[C@]12C [Allopregnanolone, 3α,5α-tetrahydroprogesterone, reference compound] | – | about 45 minutes |
